This note sets out measurements from patent EP0449195B1, “Aminobenzene compounds, their production and use” (Takeda Chemical Industries, Ltd., priority 1990, dated 1991).

This assay concerns N18-RE-105 cells. The experiment in a line: Protective activity to glutamic acid-induced necrocytosis in N18-RE-105 cells (cell lethal ratio from LDH activity). The note with it: glutamic acid (10 mM), cultivation 24 hours after addition, LDH activity in cells and medium, read-out: IC₅₀ (minimum concentrations for depressing cell lethal ratio to not more than 50%), Effect on glutamic acid cytotoxicity (cell lethal ratio). Type of assay: cell-based. Here is the method: When a high concentration of glutamic acid (1 to 10 mM) is added to N18-RE-105 cells, neocrocytosis caused by oxidative stress due to inhibition of incorporation of cystine into cells is observed [Neuron 2, 1547 (1989); J. Pharmacol. Exp. Ther. 250, 1132 (1989)].
Activity of various compounds against this glutamic acid-induced necrocytosis was studied. About 10,000 cells were inoculated into a culture dish of 35 mm in diameter containing DMEM medium (1 ml). After cultivation for 24 hours, glutamic acid and a compound to be tested were added. After the medium was changed to DMEM mediums containing the compound in various concentrations and then glutamic acid (10 mM) was added. After addition of glutamic acid, cultivation was further continued for 24 hours. Then, surviving cells were collected and […] activity contained in the cells and medium was determined. A cell lethal ratio (%) was calculated according to the following formula: Cell lethal ratio (%) =(LDH activity in medium)/(LDH activity in cells + LDH activity in medium)x 100 [formula] Regarding the typical compounds of the present invention, minimum concentrations for depressing cell lethal ratio to not more than 50% (IC₅₀) is shown in Table 9.

Turning to “4-(4-octylaminophenyloxy)piperidine [Example 45]”, the IC50 came to 5.5 nM.
As for “4-[4-(1-phenyldecanylamino)phenyloxy]piperidine [Example 52]”, the IC50 worked out at 10 nM.
